Test results published in paper PMC7993375, “Discovery of novel quinoline-based analogues of combretastatin A-4 as tubulin polymerisation inhibitors with apoptosis inducing activity and potent anticancer effect” (Journal of Enzyme Inhibition and Medicinal Chemistry, 2021).

What was measured:
[1] = test system: HCT-116; assay: MTT cell viability assay, HCT-116 colorectal carcinoma cells; assay type: cell-based; details: Homo sapiens, 72 h
Procedure: (§1) The four human tumour cell lines MCF-7, HCT-116, HL-60 and HeLa used in this study were obtained from the VACSERA (Giza, Egypt) cell culture unit that were originally acquired from ATCC (Manassas, VA, USA). All the human tumour cell lines were cultured in Dulbecco’s Modified Eagle’s Medium (DMEM) with 10% foetal bovine serum, 2 mM L-glutamine and 100 µg/mL penicillin/streptomycin. Cells were maintained at 37 °C in 5% CO2 in a humidified incubator. All cells were sub-cultured 3 times/week by trypsinisation using TrypLE Express (1X).
(§2) The quinoline compounds were evaluated for antiproliferative effect using the MTT viability assay of four cancer cell lines (MCF-7, HCT-116, HL-60 and HeLa) and normal breast cells MCF-10A to calculate the relative IC50 values for each compound. Cells were seeded in triplicate in 96-well plates at a density of 10 × 10^3 cells/ml in a total volume of 200 µl per well. 0.1% of DMSO was used as a vehicle control. Following, the cells were treated with 2 µl test compound (from stock solutions in ethanol) to furnish the concentration range of study, 1 nM to 50 µM, and re-incubated for a further 72 h. The culture medium was then removed, and the cells washed with 100 µL phosphate buffered saline (PBS) and 50 µL MTT added, to reach a final concentration of 1 mg/mL. Cells were incubated for 2 h in darkness at 37 °C. Solubilisation was begun through the addition of […] DMSO, and the cells maintained at room temperature in darkness for 20 min to ensure thorough colour diffusion before reading the absorbance. Plates were incubated for 72 h at 37 °C + 5% CO2. The MTT (5 mg/mL in PBS) was added and incubated for another 4 h, and the optical density was detected with a microplate reader at 570 nm. Results were expressed as percentage viability relative to vehicle control (100%). Dose response curves were plotted and IC50 values (concentration of drug resulting in 50% reduction in cell survival) were obtained using the commercial software package Prism (GraphPad Software, Inc., La Jolla, CA, USA). All the experiments were repeated in at least three independent experiments.

[2] = test system: MCF-7 cells; assay: Intracellular ROS production (H2-DCFDA); assay type: cell-based, human; details: 24 h, untreated 1.0%
Procedure: (§3) Mitochondrial membrane potential (Δψmt) was measured by flow cytometry with DiOC2(3) staining and additional labelling with an annexin V conjugate. After treatment with compound 12c (50 and 250 nM) and CA-4 (50 nM), cells were stained with DiOC2(3) dye for 30 min in the incubator, then harvested and washed with PBS. DiOC2(3)-stained cells were resuspended with 1X annexin binding buffer, followed by addition of annexin V conjugate and incubated at 37 °C for 15 min. The data from the flow cytometry were analysed by Cell Quest software. Production of intracellular reactive oxygen species (ROS) was measured using 2,7–dichlorofluorescin diacetate (H2-DCFDA) dye. MCF-7 cells were seeded and treated either with vehicle (0.1% DMSO) or with compound 12c (50 and 250 nM) or CA-4 (50 nM) for 6, 12 and 24 h. H2O2 was used as a positive control. The amount of ROS generated was estimated after 2 h of selected compound treatment. The cells were collected by centrifugation and washed twice with PBS. Cells were then incubated with DCFDA dye (25 µM) in dark at 37 °C for 1 h. Fluorescence spectra (510 − 600 nm) were monitored using an excitation wavelength of 488 nm[53]^,[54].

[3] = test system: tubulin (colchicine binding site); assay: Colchicine site competitive binding assay ([3H]colchicine); details: tubulin 1 µM, colchicine 5 µM
Procedure: The affinity of compounds 12c to colchicine binding site was determined using Colchicine Site Competitive Assay kit CytoDYNAMIX Screen15 (Cytoskeleton, Inc., Denver, CO, USA) using the standard protocol of the manufacturer to determine Ki. Biotin-labelled tubulin ([…], PerkinElmer, Waltham, MA) and the test compounds (positive control colchicine, negative control vinblastine, G-1, fluorescent G-1, or 2-ME) in a 96-well plate (final volume: 100 µL). After incubating for 2 h at 37 °C with gentle shaking, streptavidin-labelled yttrium SPA beads (80 µg in 20 µL reaction buffer, PerkinElmer, Waltham, MA) were added to each well and incubated for 30 min at 4 °C. The plates were then read on a scintillation counter (Packard Instrument, Topcount Microplate Reader) and the percentage of inhibition was calculated[50]^,[51].

[4] = test system: HeLa; assay: MTT cell viability assay, HeLa cervical adenocarcinoma cells; assay type: cell-based; details: Homo sapiens, 72 h
Procedure: as §1, §2

[5] = test system: MCF-7 cells; assay: Mitochondrial membrane potential (DiOC2(3), annexin V, flow cytometry); assay type: cell-based, human; details: 24 h, untreated 1.1%
Procedure: as §3

[6] = test system: anti-apoptotic protein Bcl-2; assay: Bcl-2 ELISA, expression level in MCF-7 cells; assay type: cell-based, human; details: MCF-7, 250 nM, 48 h
Procedure: (§4) The level of the anti-apoptotic marker and apoptotic marker BAX were assessed using Bcl-2 Elisa kit and human Bax ELISA Kit purchased from Zymed laboratories, invitrogen and Cloud-Clone Crop. (Katy, TX, USA), respectively, following the manufacturer’s instructions. Briefly, Treated MCF-7 cell lysate with 250 nM of compound 12c were prepared, and equal amount of cell lysates were loaded and propped with specific antibodies. The samples were measured and analysed at 450 nm in ROBONEK P2000 ELISA reader. In Vitro Caspase-9 Activation Assay was performed using human active caspase-9 Invitrogen EIA kit according to the manufacturer’s instructions. Compound 12c at concentrations of 50 and 250 nM and CA-4 (50 nM) were prepared in dH2O up to a final volume of 50 µL/well followed by addition of 5 µL of active caspase-9. Following, the cells were mixed and 50 µL of the Master Mix was added to each well and allowed to react at 37 °C for 1 h. The fluorescence intensity of the test samples was recorded and analysed in a fluorescence plate reader at 400 nm excitation and 505 nm emissions. All experiments were conducted in triplicates.

[7] = test system: MCF-7, HL-60, HCT-116 and HeLa; assay: MTT cell viability assay, statements over all four cancer cell lines; assay type: cell-based, human; details: Homo sapiens
Procedure: as §1, §2

[8] = test system: MCF-7 cells; assay: Wound healing assay; assay type: cell-based, human
Procedure: MCF-7 were grown in 6-well plates for 24 h, and scratches were made using pipette tip and washed with PBS to remove non-adherent cell debris. Subsequently, the cells were treated with different concentrations of 12c for 24 h. The migrations across the wound area were photographed under a phase contrast microscopy.

[9] = test system: pro-apoptotic protein Bax; assay: Bax ELISA, expression level in MCF-7 cells; assay type: cell-based, human; details: MCF-7, 250 nM, 48 h
Procedure: as §4

[10] = test system: MCF-7 cells; assay: Colony formation assay; assay type: cell-based, human; details: 50 and 250 nM
Procedure: MCF-7 cells (600 cells per well) were seeded in 6-well plates and incubated for 24 h before being then treated with different doses of the compound 12c (50 and 250 nM) for 14 days. Following, the cells were washed with PBS twice and subsequently fixed with 4% paraformaldehyde and stained with 0.05% crystal violet for 30 min. Finally, cells were visualised using an inverted microscope.

SMILES	IC50 [1] [nM]	levels of ROS in MCF-7 cells ([2]; 50 nM) [%]	Colchicine binding, % inhibition of [3H]colchicine binding ([3]; 1 µM drug) [%]	Colchicine binding, % inhibition of [3H]colchicine binding ([3]; 5 µM drug) [%]	IC50 [4] [nM]	percentage of apoptotic cells with decrease in MMP ([5]; 50 nM) [%]	percentage of apoptotic cells with decrease in MMP ([5]; 250 nM) [%]	levels of ROS in MCF-7 cells ([2]; 250 nM) [%]	expression level of the anti-apoptotic protein Bcl-2 [6]	IC50 [7] [nM]	MCF-7 cell migration into wound area [8]	expression of the pro-apoptotic protein Bax [9]	clonogenic formation potential of MCF-7 cells [10]
COc1ccc(/C=C\c2cc(OC)c(OC)c(OC)c2)cc1O [CA-4, Combretastatin A-4]	26 ± 1	18.3	86 ± 0.9	97 ± 2	64 ± 4	–	–	–	–	–	–	–	–
COc1cc(C2=NC(=Cc3cc4ccc(C)cc4nc3OC)C(=O)O2)cc(OC)c1OC [Compound 12c, 4-[(2-Methoxy-7-methylquinolin-3-yl)methylene]-2–(3,4,5-trimethoxyphenyl) oxazol-5(4H)-one]	22 ± 1	22.7	79 ± 2	87 ± 1	42 ± 1	24.9	31.3	26.6	decreased	10 to 42	significantly inhibited in a dose-dependent manner	up-regulated	suppressed the clonogenic formation potential of MCF-7 cells in a dose dependent manner
